This note sets out measurements from paper PMC10348910, “Epigenetic reprogramming of cell cycle genes by ACK1 promotes breast cancer resistance to CDK4/6 inhibitor” (Oncogene, 2023).

For series [1], the system named is cytochrome P450 (CYP) isoenzymes. In kind it is in vitro ADME. The note with it: human liver microsomes; CYP1A1/2, CYP2C9, CYP2C19, CYP2D6 and CYP3A4. In general terms: Liver microsomes are a subcellular fraction often used to study metabolism.
Series [2] deals with BT549. Kind of series: proliferation assay, trypan blue exclusion. Type of series: cell-based. The note with it: BT549 (lacking Rb), 96 h. As to the method:
(§1) A–F Breast cancer cells were treated with either vehicle or (R)-9b for 48 h; cells were harvested and processed for cell cycle analysis using propidium iodide staining, followed by flow cytometry. G BT549 and H MDA-MB-468 cells were treated with varying drug concentrations of palbociclib or (R)-9b for 96 h and the cell viability assessed using trypan blue exclusion method. I BT549, and J MDA-MB-468 cells were treated with 1 µM palbociclib or (R)-9b for 48 h and subjected to cell cycle analysis using propidium iodide staining, followed by flow-cytometry. Palbociclib-resistant MDA-MB-231 (K) and HCC-1395 (L) were generated and treated with varying drug concentrations of palbociclib or (R)-9b for 96 h and the cell viability assessed using trypan blue exclusion method.
(§2) For proliferation assay, 5 × 10^4 cells were plated in 6-well plate and treated with either vehicle (DMSO) or varying concentrations of (R)-9b or palbociclib in complete media for 96 h and number of viable cells were counted by trypan blue exclusion assay. Breast cancer cell lines were treated with vehicle or varying concentrations of (R)-9b for 72 h. The cells were harvested, washed 2 times with PBS and incubated with 3 ul of Annexin V-FITC antibody according to the manufacturers protocol (BD Biosciences). Five µl Propidium iodide was used to stain necrotic cells. The cells were acquired using the BD FACSCalibur machine (BD Biosciences) and data was analyzed using FlowJo software. Cell cycle analysis was performed as mentioned earlier. Briefly, vehicle or (R)-9b (48 h) treated cells were harvested by trypsinization, washed 2 times with PBS, and fixed using chilled 70% Ethanol for 1 h, followed by 2 washes with PBS. The cell pellets were treated with 50 µl RNase A (100 µg/ml; Sigma) for 15 min at 37 °C and Propidium Iodide (PI; 50 µg/ml, Sigma) was added to these cells, followed by acquisition using BD FACS Canto-II or FACSCalibur machines. The data were analyzed using FlowJo software.

The test system of series [3] is MDA-MB-468. Kind of series: proliferation assay, trypan blue exclusion. Type of series: cell-based. The note with it: MDA-MB-468 (lacking Rb), 96 h. The procedure: as §1, §2
The test system of series [4] is breast cancer cell lines. Kind of series: cell cycle analysis, propidium iodide flow cytometry. Type of series: cell-based. The note with it: 48 h. The procedure:
as §1, §2
(Flow cytometry measures light scatter and fluorescence of single cells or particles in a stream.)

The subject of series [5] is normal breast cells, MCF10a. Described as above. Type of series: cell-based. The note with it: 48 h. As to the method:
as §1, §2

Series [6] deals with luciferase expressing 4T1 cells. Briefly: orthotopic lung metastasis study. The note with it: 24 mg/kg subcutaneously, 2 weeks. Type of series: in vivo, female Balb/c mice. The procedure: In addition, we performed fluorescent imaging on mice orthotopically injected with luciferase expressing 4T1 cells (5 × 10^5). Two weeks after inoculation into the mammary fat pads, mice were subcutaneously injected with vehicle (6% Captisol) or (R)-9b (24 mg/kg) five times a week for 2 weeks. Mice were then administered an intraperitoneal injection of D-luciferin, lungs were excised and imaged for metastases.
Female Balb/c mice were orthotopically injected with luciferase expressing 4T1 cells (5 × 10^5). Two weeks after inoculation into the 5th mammary fat pads, mice were subcutaneously injected with vehicle (6% captisol) or (R)-9b (24 mg/Kg) five times a week, for 2 weeks. Mice were then intraperitoneally injected with D-luciferin, humanely euthanized, lungs were excised and assessed for metastases using both fluorescent in vivo imaging system and H&E staining.

For series [7], the system named is CXCR4 mRNA. Kind of series: qRT-PCR of CXCR4 in MDA-MB-231 cells. In kind it is cell-based. As to the method:
Fig. 7 ACK1 inhibitor overcomes palbociclib-resistant breast cancer growth and metastasis. A 3 × 10^6 MDA-MB-468 cells were injected in the 4th inguinal mammary fat pad of female SCID mice. Once the tumors were palpable, the mice were treated with either vehicle (Captisol; n = 7), Palbociclib at 80 mg/kg (n = 6), or (R)-9b at 36 mg/Kg (n = 6) orally. In addition, mice were injected with (R)-9b at 24 mg/Kg (n = 7) subcutaneously. Mice were treated five times a week, for 22 days. B, C The tumors were harvested and photographed, and the weights were recorded. D Vehicle or (R)-9b treated breast cancer cells were subjected to ChIP using pY88-H4 antibody, followed by qPCR for CXCR4 gene. E CXCR4 mRNA transcript levels in vehicle or (R)-9b treated MDA-MB-231 cells. 18S rRNA was used as housekeeping gene. F MDA-MB-231 cells were transfected with ACK1 or scrambled siRNA, followed by qRT-PCR to determine CXCR4 mRNA transcript levels. […] H Graphical quantitation of lung metastatic deposit. […] The metastases were assessed using IVIS. […] For (A, C–F, I), p values were calculated using unpaired two-tailed Student’s t test.
Real-time quantitative PCR analyses were performed using the ABI PRISM 7900HT Sequence Detection System (Applied Biosystems) as described earlier. […] Data were analyzed using SDS software version 2.2.2 and exported into an Excel spreadsheet. […]
In general terms: In qPCR the cycle at which signal appears reflects the starting amount.

Turning to `CN1CCN(c2ccc(Nc3ncc(Cl)c(NC[C@H]4CCCO4)n3)cc2)CC1` [(R)-9b], in series [1], the “potential to inhibit cytochrome P450 (CYP) isoenzymes” value was “low potential to inhibit”. Besides, the “sensitivity (cell proliferation)” value in series [2] and in series [3] was “sensitive” each time. Moreover, the cell cycle effect result in series [4] (MDA-MB-453, MCF7, HCC-1395, SKBR3 and T47D) is given as “arrest in G2/M phase”; in series [4] (palbociclib-resistant BT549 and MDA-MB-468 cells, 1 µM), “G2/M cell cycle arrest”; in series [5], “no G2/M arrest”. Besides, in series [6], the “lung tumor nodules (H&E)” value was “absent”. In series [6] (five times a week), the “lung luminescence (photons/sec)” value is “significant decrease”. Moreover, the CXCR4 transcription result in series [7] is given as “inhibited CXCR4 transcription”.
